Here are results for two compounds from patent EP0478235A2, “A directed biosynthesis for an immunomycin derivative” (MERCK & CO. INC., priority 1990, dated 1992).

The subject of the assay is T lymphocytes. The assay is described as follows: T-cell proliferation assay (tritiated thymidine incorporation, ionomycin + PMA stimulation). The settings on record: T-lymphocyte. The format is cell-based, C57B1/6 mice. How it is done:
Purified compound, or fractions, prepared by HPLC, was dissolved in absolute ethanol at a final concentration of 100 µg/ml.
Spleens from C57B1/6 mice were taken under sterile conditions and gently dissociated in ice-cold RPMI 1640 culture medium (GIBCO, Grand Island, N. Y.) supplemented with 10% heat-inactivated fetal calf serum (GIBCO). Cells were pelleted by centrifugation at 1500 rpm for 8 minutes. Contaminating red cells were removed by treating the pellet with ammonium chloride lysing buffer (GIBCO) for 2 minutes at 4°C. Cold medium was added and cells were again centrifuged at 1500 rpm for 8 minutes. T lymphocytes were then isolated by separation of the cell suspension on nylon wool columns as follows: Nylon wool columns were prepared by packing approximately 4 grams of washed and dried nylon wool into 20 ml plastic syringes. The columns were sterilized by autoclaving at 250°F for 30 minutes. Nylon wool columns were wetted with warm (37°C) culture medium and rinsed with the same medium. Washed spleen cells resuspended in warm medium were slowly applied to the nylon wool. The columns were then incubated in an upright position at 37°C for 1 hour. Non-adherent T lymphocytes were eluted from the columns with warm culture medium and the cell suspensions were spun as above.
Purified T lymphocytes were resuspended at […] in complete culture medium composed of RPMI 1640 medium with 10% heat-inactivated fetal calf serum, […], 1mM sodium pyruvate, 2 x 10⁻⁵M 2-mercaptoethanol and 50 µg/ml gentamycin. Ionomycin was added at 250 ng/ml and PMA at 10 ng/ml. The cell suspension was immediately distributed into 96 well flat-bottom microculture plates (Costar) at 200 µl/well. The control, being the medium without test drug, and various below-indicated dilutions of the sample (above-described purified prolylimmunomycin) to be tested were then added in triplicate wells at 20 µl/well. FK-520 was used as a standard. The culture plates were then incubated at 37°C in a humidified atmosphere of 5% CO₂-95% air for 44 hours. The proliferation of T lymphocytes was assessed by measurement of tritiated thymidine incorporation. After 44 hours of culturing, the cells were pulse-labelled with 2 µCi/well of tritiated thymidine (NEN, Cambridge, MA). After another 4 hours of incubation, cultures were harvested on glass fiber filters using a multiple sample harvester. Radioactivity of filter discs corresponding to individual wells as measured by standard liquid scintillation counting methods (Betacounter). Mean counts per minute of replicate wells were calculated and the results expressed as percent inhibition of tritiated thymidine uptake (profileration) as follows: Inhibition = 100 -(Mean cpm sample tested X 100.)/(Mean cpm control medium) [formula]
On the technique in general: Uptake of a labelled nucleoside into DNA is a usual measure of proliferation.

For orientation: inhibition means the change of the read-out against control, counted positive when it falls. Regarding `CC[C@@H]1/C=C(\C)C[C@H](C)C[C@H](OC)[C@H]2O[C@@](O)(C(=O)C(=O)N3CCCC[C@H]3C(=O)O[C@H](/C(C)=C/[C@@H]3CC[C@@H](O)[C@H](OC)C3)[C@H](C)[C@@H](O)CC1=O)[C@H](C)C[C@@H]2OC` [FK-520, immunomycin], for the setting “Mus musculus, 4 ng/ml, standard”, the inhibition at 0.004 µg/mL worked out at 99%.

For `CC[C@@H]1/C=C(\C)C[C@H](C)C[C@H](OC)[C@H]2O[C@@](O)(C(=O)C(=O)N3CCC[C@H]3C(=O)O[C@H](/C(C)=C/[C@@H]3CC[C@@H](O)[C@H](OC)C3)[C@H](C)[C@@H](O)CC1=O)[C@H](C)C[C@@H]2OC` [Prolyl-Immunomycin, prolyl-immunomycin], the inhibition at 0.0019 µg/mL (1.9 ng/ml, mouse T cell cultures pulsed with 3H-thymidine for 4 hours prior to harvesting at 48 hours) amounted to 8.2%. Besides, the inhibition at 0.0039 µg/mL (3.9 ng/ml, mouse T cell cultures pulsed with 3H-thymidine for 4 hours prior to harvesting at 48 hours) was 47%. Moreover, under “7.8 ng/ml, mouse T cell cultures pulsed with 3H-thymidine for 4 hours prior to harvesting at 48 hours”, the inhibition at 0.0078 µg/mL is 84.8%. Under “15.5 ng/ml, mouse T cell cultures pulsed with 3H-thymidine for 4 hours prior to harvesting at 48 hours”, the inhibition at 0.0155 µg/mL was determined as 94.3%. Moreover, the inhibition at 0.031 µg/mL (31.0 ng/ml, mouse T cell cultures pulsed with 3H-thymidine for 4 hours prior to harvesting at 48 hours) turned out to be 96.3%. Moreover, for the setting “62.0 ng/ml, mouse T cell cultures pulsed with 3H-thymidine for 4 hours prior to harvesting at 48 hours”, the inhibition at 0.062 µg/mL is 97.8%.
